Among the data in patent US9745321B2, “Fused pyrimidine compound, intermediate, preparation method therefor, and composition and application thereof” (SHANGHAI YINGLI PHARMACEUTICAL CO., LTD, priority 2013, dated 2017) are IC50 and α/δ selectivity values, retold here.

A word on the IC50: it is the concentration needed to halve the response being measured. Low readings indicate higher potency, high ones lower potency.

For one test, the system named is Raji cells. Put plainly: Inhibition of TNF-α generation of human Raji cell induced by human IgM. The settings on record: 10 μg/ml IgM stimulation, 24 hrs, ELISA. The test is classed as cell-based. As for the experimental part: Screening Test for a Drug on Inhibiting TNF-α Generation of Human Raji Cell Induced by Human IgM
• 1. Raji cell lines (source of human Burkitt's lymphoma) were employed. • 2. 1×10^5/well Raji cells were plated onto a 96-well cell culture plate. • 3. Compounds to be screened were diluted to the corresponding test concentrations and added into the cell culture system 30 minutes before IgM stimulation. • 4. 10 μg/ml IgM monoclonal antibody was added into the cell culture system to stimulate the cells generating TNF-α. • 5. 24 hrs later, the amount of TNF-α generated by the cell system was measured by ELISA method. • 6.

The next test deals with PI3Kδ (Homo sapiens (Human), UniProt O00329). Put plainly: PI3Kδ enzyme activity inhibition IC50 evaluation assay. The test is classed as biochemical. The settings on record: luminescence, 25 μM ATP, 50 μM PIP2, 2 hrs room temperature. The procedure, abridged: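 Enzyme was preincubated with compound dilutions at 1% DMSO final in 50 mM HEPES pH 7.5, 3 mM MgCl2, 1 mM EGTA, 100 mM NaCl, 0.03% CHAPS, 2 mM DTT. Activity was read by luminescence, and inhibition rate is the mean of two tests.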

Another test deals with PI3Kα (Homo sapiens (Human), UniProt P42336). Put plainly: PI3Kα enzyme activity inhibition IC50 evaluation assay. The test is classed as biochemical. Particulars: ratio PI3Kα vs PI3Kδ. The procedure, abridged:
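Enzymes were preincubated with compound (1% DMSO final) in HEPES pH 7.5 buffer with MgCl2, EGTA, NaCl, CHAPS and 2 mM DTT. Reaction started with 50 μM PIP2 and 25 μM ATP, 1 h at room temperature. Luminescence was read, with ADP-Glo detection reagent added for β and γ; inhibition is the mean of two tests.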

Sequence of PI3Kδ (O00329 whole entry): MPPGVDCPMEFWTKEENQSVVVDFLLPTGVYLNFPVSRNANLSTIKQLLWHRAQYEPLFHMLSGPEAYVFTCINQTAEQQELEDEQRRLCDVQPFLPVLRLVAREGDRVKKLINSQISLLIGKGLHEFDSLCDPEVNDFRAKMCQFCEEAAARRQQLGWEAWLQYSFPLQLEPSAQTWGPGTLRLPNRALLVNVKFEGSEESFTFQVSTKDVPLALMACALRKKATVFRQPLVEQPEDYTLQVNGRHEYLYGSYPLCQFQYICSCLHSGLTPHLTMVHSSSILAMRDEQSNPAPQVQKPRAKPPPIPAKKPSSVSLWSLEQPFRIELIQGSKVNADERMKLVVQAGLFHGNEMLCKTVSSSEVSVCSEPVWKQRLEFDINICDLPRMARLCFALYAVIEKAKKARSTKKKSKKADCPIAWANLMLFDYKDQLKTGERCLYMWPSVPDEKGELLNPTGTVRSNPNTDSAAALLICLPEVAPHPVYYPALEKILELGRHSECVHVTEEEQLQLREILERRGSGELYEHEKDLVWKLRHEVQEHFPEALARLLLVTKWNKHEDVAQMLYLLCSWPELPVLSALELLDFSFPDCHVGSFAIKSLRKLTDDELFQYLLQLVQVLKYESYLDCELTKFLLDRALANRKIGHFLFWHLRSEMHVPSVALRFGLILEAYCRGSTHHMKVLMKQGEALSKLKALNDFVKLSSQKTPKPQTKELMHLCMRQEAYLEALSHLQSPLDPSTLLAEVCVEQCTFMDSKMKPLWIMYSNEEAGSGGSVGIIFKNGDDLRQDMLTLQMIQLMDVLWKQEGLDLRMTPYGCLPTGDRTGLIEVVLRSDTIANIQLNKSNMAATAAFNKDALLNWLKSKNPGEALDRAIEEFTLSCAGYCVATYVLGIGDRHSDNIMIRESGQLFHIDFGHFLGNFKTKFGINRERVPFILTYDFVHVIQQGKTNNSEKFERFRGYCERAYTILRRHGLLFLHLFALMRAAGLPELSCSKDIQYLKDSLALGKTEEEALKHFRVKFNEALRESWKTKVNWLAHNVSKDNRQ
Sequence of PI3Kδ (P27986 whole entry partner): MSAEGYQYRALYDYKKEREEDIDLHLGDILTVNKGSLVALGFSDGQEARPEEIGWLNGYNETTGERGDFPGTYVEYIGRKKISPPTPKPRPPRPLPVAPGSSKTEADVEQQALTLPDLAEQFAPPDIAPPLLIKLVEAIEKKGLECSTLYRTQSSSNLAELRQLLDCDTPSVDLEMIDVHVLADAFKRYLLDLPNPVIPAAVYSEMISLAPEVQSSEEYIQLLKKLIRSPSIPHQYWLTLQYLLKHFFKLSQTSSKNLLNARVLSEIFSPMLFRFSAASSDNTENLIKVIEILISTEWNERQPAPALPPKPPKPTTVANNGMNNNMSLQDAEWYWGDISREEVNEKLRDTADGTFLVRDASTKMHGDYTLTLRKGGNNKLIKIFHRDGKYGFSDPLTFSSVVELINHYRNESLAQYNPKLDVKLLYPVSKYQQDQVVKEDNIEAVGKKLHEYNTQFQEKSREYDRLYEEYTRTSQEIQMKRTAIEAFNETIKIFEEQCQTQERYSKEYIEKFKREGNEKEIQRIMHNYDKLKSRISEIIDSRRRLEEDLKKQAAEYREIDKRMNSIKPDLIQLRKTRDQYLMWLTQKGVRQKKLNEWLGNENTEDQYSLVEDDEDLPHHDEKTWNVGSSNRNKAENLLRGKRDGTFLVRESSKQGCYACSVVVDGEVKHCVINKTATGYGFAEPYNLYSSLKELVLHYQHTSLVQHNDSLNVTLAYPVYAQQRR
Sequence of PI3Kα (P42336 whole entry): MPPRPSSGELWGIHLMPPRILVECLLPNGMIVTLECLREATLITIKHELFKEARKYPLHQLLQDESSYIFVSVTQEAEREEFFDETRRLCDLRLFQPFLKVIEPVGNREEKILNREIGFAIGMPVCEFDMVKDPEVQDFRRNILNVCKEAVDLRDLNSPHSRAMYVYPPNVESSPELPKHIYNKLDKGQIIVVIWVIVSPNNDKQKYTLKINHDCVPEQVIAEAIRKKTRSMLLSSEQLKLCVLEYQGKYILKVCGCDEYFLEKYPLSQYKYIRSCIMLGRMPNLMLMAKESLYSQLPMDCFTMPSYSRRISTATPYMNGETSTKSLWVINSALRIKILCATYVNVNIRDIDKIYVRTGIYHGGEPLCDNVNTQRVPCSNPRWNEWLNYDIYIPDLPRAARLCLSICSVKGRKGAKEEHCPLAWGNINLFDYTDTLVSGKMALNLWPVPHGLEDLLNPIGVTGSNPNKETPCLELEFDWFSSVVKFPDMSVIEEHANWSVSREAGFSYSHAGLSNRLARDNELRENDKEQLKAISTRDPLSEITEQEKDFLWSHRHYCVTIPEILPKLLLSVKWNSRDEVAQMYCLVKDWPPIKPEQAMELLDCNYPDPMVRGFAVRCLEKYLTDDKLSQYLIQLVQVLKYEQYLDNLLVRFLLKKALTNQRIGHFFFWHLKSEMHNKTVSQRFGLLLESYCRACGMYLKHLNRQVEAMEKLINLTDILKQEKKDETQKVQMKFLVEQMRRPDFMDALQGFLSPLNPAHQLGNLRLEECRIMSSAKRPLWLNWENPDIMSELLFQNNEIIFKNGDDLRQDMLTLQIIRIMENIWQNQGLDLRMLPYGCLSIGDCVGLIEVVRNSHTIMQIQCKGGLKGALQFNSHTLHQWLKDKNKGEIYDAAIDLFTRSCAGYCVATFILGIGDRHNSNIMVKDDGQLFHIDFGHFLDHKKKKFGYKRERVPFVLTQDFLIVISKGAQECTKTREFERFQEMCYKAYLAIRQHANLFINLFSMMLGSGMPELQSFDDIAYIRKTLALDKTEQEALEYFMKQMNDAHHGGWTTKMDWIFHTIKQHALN
Sequence of PI3Kα (P27986 whole entry partner): as the sequence (P27986 whole entry partner) above

In the case of `CC[C@H](Nc1ncnc2[nH]cnc12)c1nc2cccc(F)c2c(=O)n1-c1ccccc1` [CAL-101, idelalisib, reference compound], the IC50 with Raji cells (Homo sapiens) was determined as 29.8 nM.

As for `c1cc(-c2nc(N3CCOCC3)nc3c(CN4CCN(C5CCOCC5)CC4)csc23)c2cc[nH]c2c1` [Compound 10], the half-inhibitory concentration (IC50) against PI3Kδ was found to be 25 nM; in the test with Raji cells it was 28 nM. At PI3Kα, the α/δ selectivity is above 400.

As for `c1cc(-c2nc(N3CCOCC3)nc3c(CN4CCN(C5COC5)CC4)csc23)c2cc[nH]c2c1` [Compound 11], the IC50 at PI3Kδ was determined as 17 nM; with Raji cells, 41.1 nM. In addition, at PI3Kα, the α/δ selectivity is recorded as above 588.

On to `CC(=O)N1CCN(Cc2csc3c(-c4cccc5[nH]ccc45)nc(N4CCOCC4)nc23)CC1` [Compound 14], for which the IC50 was found to be 3.8 nM at PI3Kδ and 25.6 nM with Raji cells. The α/δ selectivity on PI3Kα is listed as 700.

On to `COc1ncc(-c2nc(N3CCOCC3)nc3c(CN4CCC(C(C)(C)O)CC4)c(C)sc23)cc1NS(C)(=O)=O` [Compound 60], for which the values for the concentration for half-maximal inhibition (IC50) on PI3Kδ and in the test with Raji cells were 7.1 nM and 2 nM, respectively. In addition, the α/δ selectivity on PI3Kα is 147.

Turning to `COc1ncc(-c2nc(N3CCOCC3)nc3c(CN4CCN(C(=O)CO)CC4)c(C)sc23)cc1NS(C)(=O)=O` [Compound 71], the IC50 at PI3Kδ was 6.8 nM; in the test with Raji cells it was 8.6 nM. Also, the α/δ selectivity at PI3Kα was 13.

Take `COc1ncc(-c2nc(N3CCOCC3)nc3c(CN4CCC(C(C)(C)O)CC4)c(C)sc23)cc1NS(=O)(=O)C1CC1` [Compound 79]: the IC50 came to 9.4 nM on PI3Kδ and 14.5 nM with Raji cells. At PI3Kα, the α/δ selectivity turned out to be 582.

For the compound `COc1ncc(-c2nc(N3CCOCC3)nc3c(CN4CCC(OC)CC4)c(C)sc23)cc1NS(=O)(=O)C1CC1` [Compound 81], the half-maximal inhibitory concentration (IC50) came out at 24 nM against PI3Kδ and 43 nM with Raji cells. The α/δ selectivity at PI3Kα is 374.

`COc1ncc(-c2nc(N3CCOCC3)nc3c(CN4CCN(C(=O)C(F)(F)F)CC4)c(C)sc23)cc1NS(=O)(=O)C1CC1` [Compound 82]: the IC50 on PI3Kδ is 15 nM; in the test with Raji cells it was 76.8 nM. At PI3Kα, the α/δ selectivity was determined as 143.

Regarding `COc1ncc(-c2nc(N3CCOCC3)nc3c(CN4CCN(CC(F)(F)F)CC4)c(C)sc23)cc1NS(=O)(=O)C1CC1` [Compound 84], the IC50 against PI3Kδ turned out to be 47 nM; in the test on Raji cells, 30.4 nM. For the same compound, the α/δ selectivity at PI3Kα is above 213.

On to `COc1ncc(-c2nc(N3CCOCC3)nc3c(CN4CCN(C(C)(C)C)CC4)c(C)sc23)cc1NS(C)(=O)=O` [Compound 89], for which the results for the IC50 on PI3Kδ and with Raji cells were 2.6 nM and 1.3 nM, respectively. Also, the α/δ selectivity at PI3Kα is 48.

Turning to `COc1ncc(-c2nc(N3CCOCC3)nc3c(CN4CCN(C(=O)C(F)(F)F)CC4)c(C)sc23)cc1NS(C)(=O)=O` [Compound 90], the IC50 at PI3Kδ stood at 4.9 nM; in the test with Raji cells it was 31.2 nM. Besides, the α/δ selectivity at PI3Kα is 69.

Consider `COc1ncc(-c2nc(N3CCOCC3)nc3c(CN4CCN(C(C)C)CC4)c(C)sc23)cc1NS(C)(=O)=O` [Compound 91], for which the half-maximal inhibitory concentration (IC50) stood at 3.2 nM on PI3Kδ and 3.4 nM with Raji cells. The α/δ selectivity at PI3Kα is 60.

Turning to `COc1ncc(-c2nc(N3CCOCC3)nc3c(CN4CCN(C(=O)CC#N)CC4)c(C)sc23)cc1NS(C)(=O)=O` [Compound 100], the results for the IC50 at PI3Kδ and with Raji cells were 17 nM and 5.7 nM, respectively. Further, the α/δ selectivity at PI3Kα was 17.

On to `CCOC1CCN(Cc2c(C)sc3c(-c4cnc(OC)c(NS(C)(=O)=O)c4)nc(N4CCOCC4)nc23)CC1` [Compound 103], for which the IC50 was found to be 8.4 nM at PI3Kδ and 9.3 nM in the test on Raji cells. In addition, the α/δ selectivity at PI3Kα is 176.

Turning to `COc1ncc(-c2nc(N3CCOCC3)nc3c(CN4CC(N(C)C)C4)c(C)sc23)cc1NS(C)(=O)=O` [Compound 121], the concentration for half-maximal inhibition (IC50) amounted to 16 nM at PI3Kδ and 33.7 nM in the test with Raji cells. The α/δ selectivity on PI3Kα is given as 192.
